Active and inactive are the calls of the source. The rule behind the calls is not given here.
How the values were obtained:
[1] = Binding affinity to AT-rich sequence of double strand DNA by fluorescence spectra
[2] = Binding affinity to ODN1/2 double strand DNA by fluorescence spectra

Activity [1]: Active
Activity [2]: Active
Compound: CC(=O)Nc1cc(C(=O)Nc2cc(C(=O)NCCC(=O)Nc3cc(C(=O)Nc4cc(C(=O)NCCC(=O)NCCCN(C)C)n(C)c4)n(C)c3)n(CC#Cc3ccc4c5cccc6cccc(c7cccc3c74)c65)c2)n(C)c1

— ChEMBL document CHEMBL1152263, “Perylene-conjugated pyrrole polyamide as a sequence-specific fluorescent probe” (Bioorg Med Chem, 2008)
